# Laboratory results reported in patent US20260240826A1, “COMPOSITIONS FOR PD-L1 INHIBITION AND METHODS OF USE THEREOF” (ARIZONA BOARD OF REGENTS ON BEHALF OF THE UNIVERSITY OF …, priority 2023, published 2026).
# Experiments:
# PD-L1 [1] = assay: SSL-induced PD-L1 protein in primary epidermal keratinocytes (HEK), immunoblot; format: cell-based; settings: human primary keratinocytes (HEK cells)
# Experimental: For SSL treatment, UVA-340 bulbs (Q-Lab Corporation) were used. Before exposure, cells were washed with 1×PBS and then incubated in 4 mL PBS (with 0.01% MgCl2 and 0.01% CaCl2) during irradiation. Cells were exposed to 40 kJ/m2 UVA/2.68 kJ/m2 UVB, then rinsed once more with PBS prior to being placed back into DMEM with 1% FBS+penicillin/streptomycin and vehicle or BMS-202 (post-treatment) and incubated until harvest 24 hr later. Control cells underwent identical processing, except were held in the biosafety cabinet without UV exposure.
# Adult human epithelial keratinocytes (HEKs) were purchased from Thermo Scientific and maintained in EpiLife media on collagen-coated plates as per the vendor's instructions. Cells were treated with BMS-202 and SSL as described for HaCaT cells.
# Cells were lysed in RIPA containing 1×HALT protease+phosphatase inhibitor cocktail (ThermoFisher Scientific) and 100 mM PMSF and protein concentrations were assessed using BCA assay (Bio-Rad). Mouse epidermal protein lysates for immunoblot analysis were derived from scraped frozen SKH-1 skins as described previously (Blohm-Mangone et al., 2018). Twenty μg of protein/lane were loaded onto 10% gels for electrophoresis/immunoblotting using established protocols. […]
# [2] = tested on: Il1β, Il6, Il10, Tnfα, Ptgs2, Tlr4 expression in SKH-1 mouse skin; assay: RT-qPCR of SSL-induced inflammatory genes in SKH-1 mouse skin; format: in vivo; settings: 8 mM BMS-202+SSL vs vehicle+SSL; 24 hr
# Experimental: (§1) UVB exposure was performed on AP-1 luciferase reporter mice on the SKH-1 genetic background at a dose of 2.75 kJ/m2 using FS40 bulbs (Q-Lab Corporation) as described before with the modification that mice were imaged 24 hr post UVB exposure using whole body bioluminescence instead of 48 hr post UVB using ear punches. SSL irradiation of SKH-1 mice (Charles River Laboratories, strain code 477) at a dose of 90 kJ/m2 UVA/6 kJ/m2 UVB was performed using UVA-340 bulbs (Q-Lab Corporation) as described before.
# (§2) Total RNA was isolated from SSL-treated mouse skin using the Qiagen RNeasy Mini Kit (Qiagen) according to the manufacturer's protocol. RNA integrity was checked by the RNA 6000 Nano chip kit using Agilent 2100 Bioanalyzer (Agilent Technologies). […] Then, 10 ng of cDNA was used for amplification of target genes by quantitative PCR using the following conditions: 95° C. for 10 min followed by 95° C. for 15 sec and 60° C. for 1 min for a total of 40 cycles performed in the ABI7500 Real-Time PCR System (Applied Biosystems). […] After amplification plots were generated, the Ct values (cycle number at which fluorescence reaches threshold) were recorded and quantified using the comparative (ΔΔCt) Ct method as described in the ABI Prism 7500 sequence detection system user guide. Statistical significance was calculated employing the Student's two-tailed t-test.
# [3] = cited from earlier work
# [4] = cited from earlier work; remark: listed apart in the source
# PD-L1 [5] = assay: PD-L1 mRNA in SKH-1 mouse skin by RT-qPCR; format: in vivo; settings: topical 8 mM; 24 hr after SSL
# Experimental: as §1, §2
smiles,measurement,setting,value
COc1nc(OCc2cccc(-c3ccccc3)c2C)ccc1CNCCNC(C)=O [BMS-202],SSL-induced PD-L1 protein upregulation (immunoblot),PD-L1 [1],reproducible
same,"UV-induced expression of Il1β, Il6, Il10, Tnfα, Ptgs2, Tlr4 (RT-qPCR)",[2],strong downregulation
same,Log P,[3],3.6
same,systemic availability upon topical application,[4],minimal systemic availability
same,PD-L1 mRNA expression in full thickness mouse skin (RT-qPCR),PD-L1 [5],inhibition
